The results in this text go back to patent US20260193236A1 (Protego Biopharma, Inc., priority 2022, published 2026).

The assay relates to IRE1-XBP1s (XBP1-RLuc splicing reporter in HEK293 T-REx cells). Description: IRE1-XBP1s activation assay (XBP1-RLuc splicing reporter, HEK293 T-REx cells, luminescence relative to thapsigargin). Format: cell-based. The note with it: 18 h, compound 10 μM, HEK293 T-REx XBP1-RLuc reporter cells, relative to thapsigargin (Tg) 500 nM, read-out: Activity (IRE1-XBP1s activation, luminescence as % signal relative to thapsigargin, % Tg). The procedure: IRE1-XBP1s activation Assay: HEK293 T-REx cells stably expressing the XBP1-RLuc splicing reporter were treated with an IRE1-XBP1s activator provided herein (10 μM) in the presence or absence of the IRE1 active site inhibitor 4μ8C (32 μM) for 18 h. Luminescence was shown as the percentage signal relative to thapsigargin (Tg) (500 nM, 18 h).

Each structure is given as a SMILES string.

In the case of `Cc1ccc(OCCN(C)C(=O)Cn2cc(NC(=O)CCNc3cnc4c(c3)OCO4)cn2)cc1` [Compound 295, 3-([1, 3]dioxolo[4,5-b]pyridin-6-ylamino)-N-(1-(2-(methyl (2-(p-tolyloxy)ethyl)amino)-2-oxoethyl)-1H-pyrazol-4-yl)propanamide], the activation at 10 µM was more than 50%.
The value for `C#CCCC1(CCC(=O)Nc2ncccc2OCCC(=O)Nc2cnn(CC(=O)N(C)CCOc3ccc(C)cc3)c2)N=N1` [Compound 296, 3-(3-but-3-ynyldiazirin-3-yl)-N-[3-[3-[[1-[2-[methyl-[2-(4-methylphenoxy)ethyl]amino]-2-oxo-ethyl]pyrazol-4-yl]amino]-3-oxo-propoxy]-2-pyridyl]propanamide] was less than 30%.
